Measurements as given in a compilation of properties of binary mixtures (doi:10.1007/s10953-018-0729-9).

Assay: xn = mol fraction of the nth substance listed
Conditions: 101.3 kPa

With `O=C1CCCN1` + CCCC[n+]1ccn(C)c1.F[P-](F)(F)(F)(F)F the speed of sound (303.15 K, x2 = 0) was 1618 m/s, the speed of sound (303.15 K, x2 = 0.0494) was 1584.7 m/s and the speed of sound (303.15 K, x2 = 0.1025) was 1575.2 m/s. It also gave a speed of sound (303.15 K, x2 = 0.1503) of 1566.5 m/s, a speed of sound (303.15 K, x2 = 0.2215) of 1553.8 m/s and a speed of sound (303.15 K, x2 = 0.3376) of 1532.9 m/s. For the same compound, the speed of sound (303.15 K, x2 = 0.4502) was 1512.7 m/s, the speed of sound (303.15 K, x2 = 0.5654) was 1492 m/s and the speed of sound (303.15 K, x2 = 0.6527) was 1476.3 m/s. The speed of sound (303.15 K, x2 = 0.8295) was 1446.5 m/s, the speed of sound (303.15 K, x2 = 0.8622) was 1442.6 m/s and the speed of sound (303.15 K, x2 = 0.9019) was 1438.5 m/s. For the same compound, the speed of sound (308.15 K, x2 = 0.1025) was 1560 m/s, the speed of sound (308.15 K, x2 = 0.1503) was 1551.8 m/s and the speed of sound (308.15 K, x2 = 0.3376) was 1519.5 m/s. It also gave a speed of sound (308.15 K, x2 = 0.4502) of 1499.9 m/s, a speed of sound (308.15 K, x2 = 0.5654) of 1479.6 m/s and a speed of sound (308.15 K, x2 = 0.6527) of 1464.2 m/s. For the same compound, the speed of sound (308.15 K, x2 = 0.7421) was 1448.2 m/s, the speed of sound (308.15 K, x2 = 0.8295) was 1434.6 m/s and the speed of sound (308.15 K, x2 = 0.8622) was 1430.7 m/s. The speed of sound (308.15 K, x2 = 0.9019) was 1426.6 m/s, the speed of sound (308.15 K, x2 = 0.9495) was 1423 m/s and the speed of sound (313.15 K, x2 = 0) was 1585.4 m/s. For the same compound, the speed of sound (313.15 K, x2 = 0.0494) was 1553.7 m/s, the speed of sound (313.15 K, x2 = 0.1025) was 1545.1 m/s and the speed of sound (313.15 K, x2 = 0.1503) was 1537.3 m/s. The speed of sound (313.15 K, x2 = 0.2215) was 1525.6 m/s, the speed of sound (313.15 K, x2 = 0.3376) was 1506.3 m/s and the speed of sound (313.15 K, x2 = 0.6527) was 1452.3 m/s. The speed of sound (313.15 K, x2 = 0.7421) was 1436.5 m/s, the speed of sound (313.15 K, x2 = 0.8295) was 1422.9 m/s and the speed of sound (313.15 K, x2 = 0.9019) was 1414.8 m/s. The speed of sound (313.15 K, x2 = 0.9495) was 1411.2 m/s, the speed of sound (318.15 K, x2 = 0) was 1569.4 m/s and the speed of sound (318.15 K, x2 = 0.0494) was 1538.4 m/s. For the same compound, the speed of sound (318.15 K, x2 = 0.1025) was 1530.3 m/s, the speed of sound (318.15 K, x2 = 0.1503) was 1522.9 m/s and the speed of sound (318.15 K, x2 = 0.2215) was 1511.8 m/s. For the same compound, the speed of sound (318.15 K, x2 = 0.3376) was 1493.2 m/s, the speed of sound (318.15 K, x2 = 0.4502) was 1474.8 m/s and the speed of sound (318.15 K, x2 = 0.5654) was 1455.4 m/s. The speed of sound (318.15 K, x2 = 0.6527) was 1440.5 m/s, the speed of sound (318.15 K, x2 = 0.7421) was 1424.8 m/s and the speed of sound (318.15 K, x2 = 0.8622) was 1407.5 m/s. For the same compound, the speed of sound (318.15 K, x2 = 0.9019) was 1403.3 m/s, the speed of sound (318.15 K, x2 = 0.9495) was 1399.6 m/s and the speed of sound (323.15 K, x2 = 0.0494) was 1523.2 m/s. It also gave a speed of sound (323.15 K, x2 = 0.1503) of 1508.6 m/s, a speed of sound (323.15 K, x2 = 0.2215) of 1498 m/s and a speed of sound (323.15 K, x2 = 0.3376) of 1480.2 m/s. It also gave a speed of sound (323.15 K, x2 = 0.4502) of 1462.4 m/s, a speed of sound (323.15 K, x2 = 0.5654) of 1443.5 m/s and a speed of sound (323.15 K, x2 = 0.6527) of 1428.8 m/s. It also gave a speed of sound (323.15 K, x2 = 0.7421) of 1413.4 m/s, a speed of sound (323.15 K, x2 = 0.8622) of 1396.1 m/s and a speed of sound (323.15 K, x2 = 0.9019) of 1391.9 m/s.
In the case of `CCCC[n+]1ccn(C)c1.F[P-](F)(F)(F)(F)F` + O=C1CCCN1, the speed of sound (303.15 K, x1 = 1) is reported as 1431.7 m/s, the speed of sound (308.15 K, x1 = 1) is reported as 1419.8 m/s and the speed of sound (313.15 K, x1 = 1) is reported as 1408.2 m/s. The speed of sound (318.15 K, x1 = 1) was 1396.8 m/s and the speed of sound (323.15 K, x1 = 1) was 1385.6 m/s.
